Assay results published in patent US12582616B2, “Molecular targets for modulation of dissociative and associative states” (The Board of Trustees of the Leland Stanford Junior …, priority 2020, dated 2026).
“Also recorded” adds a separate entry of the source.

Legend:
[1] = tested on: mice; experiment: Tail suspension test; assay type: in vivo, mouse
Method: Tail Suspension Test: Mouse activity was recorded using a 60 Hz web camera. Struggling activity was quantified for minutes 2-10. […] Illumination began 30 seconds before tails were secured with tape and suspended from the beam. Mice were excluded if they climbed on their own tails.

[2] = tested on: mice; experiment: Resident-intruder social interaction assay; assay type: in vivo, mouse; conditions: ketamine, both channel-knockouts vs wild-type
Method: Social Interaction Assay: Resident-intruder social interaction was recorded for two minutes. Interactions were defined as close physical proximity behaviors, including sniffing, touching, and following. […] Illumination began 30 seconds before the same-sex intruder mouse was introduced.

[3] = tested on: mice; experiment: Righting reflex assay; assay type: in vivo, mouse
From the text: Righting Reflex Assay: Mice were held at the neck and tail, rotated to supine position on a flat surface, and quickly released. Time to right was quantified as moment of release to moment when all 4 legs touched the ground. A five second threshold was used to classify righting success (less than 5 seconds) from failure (more than 5 seconds). […] Illumination began for 30 seconds, and then the mouse was swiftly inverted onto the flat surface.

[4] = tested on: retrosplenial cortex (RSP); experiment: Fiber photometry and widefield imaging of RSP, dose comparison; assay type: in vivo, mouse
From the text: A 405 nm and 470 nm LED illumination (Thorlabs) was combined (425 nm longpass, Thorlabs DMLP425) and coupled into a fiber optic patch cord (400 μm diameter, 0.48 NA, Doric Lenses) using a longpass dichroic (505 nm, Thorlabs DMLP505) and a fixed-focused coupler/collimator with a standard FC connector (F240FC-A, NA 0.51, f=7.9 mm)^47,48. Each illumination channel was frequency modulated using the sync output from a lock-in amplifier (SR810 DSP, Stanford Research Systems). GCaMP fluorescence was collected through the same patchcord and delivered through a bandpass emission filter (Semrock, FF01-520/35) onto a NewFocus 2151 femtowatt silicon photoreceiver (Newport, DC Low mode). […]
Analysis was performed using custom MATLAB (MathWorks) scripts. […] For quantification, activity traces were extracted from points centered in five cortical regions (visual, somatosensory, parietal, motor, retrosplenial) on the left hemisphere of the brain. […]
Each trace (corresponding to either a fiber photometry signal, a cellular two-photon signal, a widefield regional centroid, a widefield pixel, an sEEG trace, or a smoothed spike rate Neuropixels trace) was z-scored, and the power spectral density (PSD) was then estimated using Welch's method (pwelch( ) in Matlab), with a window size of 10*fs (15*fs for human sEEG) where fs is the sampling rate of the signal. […]

[5] = tested on: retrosplenial cortex (RSP); experiment: Retrosplenial gene disruption (HCN1, GRIN1) and fiber photometry; assay type: in vivo, mouse
Method: A 405 nm and 470 nm LED illumination (Thorlabs) was combined (425 nm longpass, Thorlabs DMLP425) and coupled into a fiber optic patch cord (400 μm diameter, 0.48 NA, Doric Lenses) using a longpass dichroic (505 nm, Thorlabs DMLP505) and a fixed-focused coupler/collimator with a standard FC connector (F240FC-A, NA 0.51, f=7.9 mm)^47,48. Each illumination channel was frequency modulated using the sync output from a lock-in amplifier (SR810 DSP, Stanford Research Systems).
Analysis was performed using custom MATLAB (MathWorks) scripts. Widefield imaging videos were registered to a 2D top-projection atlas generated from the annotated Allen Brain Atlas volume, version CCFv2, in MATLAB (MathWorks), using an affine transformation computed from four manually selected control points. Each video was DF/F normalized, using the median for each pixel over the entire time series as F. The 410 nm channel was then temporally smoothed using a moving average (width=400 ms). The smoothed 410 nm DF/F signal for each pixel was regressed onto the 488 nm DF/F signal for the corresponding pixel, and the regression coefficients were used to scale the 410 nm channel to the 488 nm channel. This scaled 410 nm DF/F signal was then subtracted from the 488 nm DF/F signal to produce a normalized signal for each pixel. For quantification, activity traces were extracted from points centered in five cortical regions (visual, somatosensory, parietal, motor, retrosplenial) on the left hemisphere of the brain. The video data was Gaussian smoothed spatially (radius=2 pixels). Similarly, for fiber photometry recordings, the 410 nm signal was regressed onto the 488 nm signal, the 410 nm signal was scaled by the regression coefficients, and then subtracted from the 488 nm signal.
Stereotaxic Surgery: Adult male and female HCN1^f/f, NR1^f/f, or wildtype C57/BI6 were injected bilaterally in two retrosplenial locations (AP −3.1 and −3.4, ML+/−0.5, DV −0.5) with 1 uL of AAV8-Ef1 a-mCherry-IRES-Cre (titer 5E11) and AAVdj-Ef1a-DIO-GCaMP6m (titer 1E13). A 400-micron optical fiber was implanted over one injection location. […]

[6] = tested on: mice; experiment: Observation for seizure-like behavior after dissociative doses; assay type: in vivo, mouse; conditions: dissociative doses of ketamine
From the text: One characteristic of seizures is increased synchrony. While the ketamine-induced rhythm involved increased synchrony in neuronal firing, the initiation, spread, maintenance/termination, and behavior were distinguishable from typical seizures.

[7] = tested on: humans; conditions: human; cited from earlier work
[8] = tested on: mouse; conditions: cited from earlier work
[9] = tested on: mice; experiment: Hot plate test
Method: Hot Plate Test: Mice were placed on the hot plate (Bioseb), which was set to 55° C. and surrounded by a clear circular perimeter. Mouse activity was recorded using two cameras from different angles. The experiment ended when the mouse jumped to escape or 90 seconds had elapsed. Care was taken to clean and dry the hot plate apparatus between animals. For optogenetic experiments, mice were connected to patch cords and then returned to a holding cage. Illumination began 30 seconds before mice were placed on the hot plate.

[10] = tested on: retrosplenial cortex (RSP); experiment: Widefield imaging of cortical activity in GCaMP6s mice
From the text: We recorded multiregional neuronal activity by leveraging widefield microscopy, a cleared skull preparation, and atlas registration in GCaMP6s-expressing mice (FIGS. 1A-1C)^6,8,15.
As described^8, mice were anesthetized with isoflurane, the scalp was removed, the skull cleaned and dried, and a custom head-plate was cemented to contacts over the cerebellum and in front of the olfactory bulb. The skull was then covered in a thin layer of cyanoacrylate glue (Apollo 2000, Cyberbond), clear dental acrylic (Ortho-Jet, Lang Dental), and clear nail polish (Electron Microscopy Services). […] (0.1 mg/kg) was injected subcutaneously for pain management. […] Imaging was performed on a custom-built fluorescence microscope designed for high light collection efficiency and large field of view. […] Alternating 410 nm and 488 nm illumination for non-Ca^2+ dependent artifact removal was controlled using a microcontroller (Arduino) slaved to the frame output trigger of the camera.
Each trace (corresponding to either a fiber photometry signal, a cellular two-photon signal, a widefield regional centroid, a widefield pixel, an sEEG trace, or a smoothed spike rate Neuropixels trace) was z-scored, and the power spectral density (PSD) was then estimated using Welch's method (pwelch( ) in Matlab), with a window size of 10*fs (15*fs for human sEEG) where fs is the sampling rate of the signal. The average band power within a specified band (i.e. 1-3 Hz) was then computed by integrating the PSD estimate (bandpower in Matlab). […] Unless otherwise indicated, the PSD was computed across the time window from minutes 10 to 11 post-injection.

[11] = tested on: brain regions correlated with RSP; experiment: Simultaneous recording from four Neuropixels probes with i.p. drug delivery
Method: Mice were anesthetized with isoflurane, carefully leveled in a stereotaxic apparatus and their scalp and periosteum were removed. A 3% hydrogen peroxide in saline solution was used to clean the surface of the skull. A custom stainless steel headbar was leveled on the skull and attached using clear dental cement. After the cement had dried, targeted probe entry sites were stereotaxically marked on the cement layer with a permanent marker (Day 1: “mPFC”, 2.3AP, 0.6ML; “somatosensory”, −0.7AP, −4.0ML; “retrosplenial”, −2AP, −1 ML; “subiculum”, −3.5AP, 2.14ML; Day 2: “OFC”: 2.5AP, 1.5ML; “mPFC”: 2.3AP, −0.6ML; “retrosplenial”, −2AP, 1ML; “thalamus”, −1.5AP, −1.7ML). In part, they were selected to cover areas with known connectivity to the retrosplenial cortex. A 2 mm long insulated platinum-iridium wire was implanted centrally over the cerebellum, with the last several hundred microns bared to serve as an electrical reference.
Mice were acclimated to head fixation and the recording rig over several days before recording. Several hours before recording, mice were anesthetized for approximately 30 minutes each while small 1 mm craniotomies were made over four pre-marked areas. Craniotomies were kept clean of bone fragments and made such that bleeding was minimized. The skull was covered with a pool of saline and with Quik-Cast to protect and keep moist craniotomies before recording. Mice recovered in their homecages before recording. Immediately prior to recording set up, mice were very briefly anesthetized with isoflurane and implanted with an IV catheter system (BD Saf-T-Intima Closed IV Catheter System: 22G×3/4′, containing an integrated Y adaptor and safety lock) to their intraperitoneal cavity and affixed with glue. […] While still anesthetized, mice were headfixed and tubing was secured stably to a custom mouse holder by tape. Quik-Cast was removed from the skull, and craniotomies were briefly cleaned before being submerged in a pool of saline. […] The four acquisitions were synchronized using a common squarewave signal recorded for all probes and aligned to the nearest pulse edge. […]

[12] = 50 mg/kg ketamine, control mice of knockout experiment

SMILES: CNC1(c2ccccc2Cl)CCCCC1=O (stereo not drawn) [ketamine]
- tail-suspension escape responses ([1]; ketamine >=25 mg/kg): similarly suppressed tail-suspension escape responses
- tail suspension-escape behavior ([1]; ketamine, both channel-knockouts vs wild-type): modestly-recovered tail suspension-escape behavior
- resident-intruder social interactions [2]: modestly-recovered
- consciousness (spontaneous ambulation, response to external stimuli) ([3]; ketamine >=25 mg/kg, subanesthetic): consciousness was maintained
- righting of postural inversion ([3]; ketamine, knockout and wild-type mice): all mice successfully-righted postural inversion
- 1-3 Hz RSP oscillation ([4]; ketamine 13 mg/kg, listed as Ketamine): not 13 mg/kg
- 1-3 Hz RSP oscillation ([4]; ketamine 25 mg/kg): rhythm at 25 mg/kg
- ketamine-induced RSP oscillation ([5]; local GRIN1 (NMDAR) knockout in RSP): significantly diminished; also recorded: partially attenuated; also recorded: Reduced ketamine-induced oscillation-power
- ketamine-induced RSP oscillation ([5]; local HCN1 knockout in RSP): significantly diminished; also recorded: selectively abolished both the ketamine-induced rhythm and dissociation-like behavioral effects; also recorded: no longer induced the deep retrosplenial rhythm; also recorded: Reduced ketamine-induced oscillation-power
- ketamine-induced RSP oscillation ([5]; wild-type): preserved in wild-type
- seizure-like signs (rigidity, convulsive movements, absence-like states, salivation/rearing/falling) [6]: no rigidity, convulsive movements, absence-like states, or salivation/rearing/falling were observed
- dose at which humans consistently report potent dissociation [7]: 2 to 3 mg/kg
- typical dose for anti-depressant effects [7]: 0.3 to 1 mg/kg
- typical dose for anti-depressant effects [8]: 3 to 10 mg/kg
- affective paw-licking, hot plate ([9]; 50 mg/kg ketamine, RSP Cre-virus in HCN1-KO mice): strikingly restored affective paw-licking
- affective paw-licking, hot plate [9, 12]: abolished affective paw-licking
- reflexive paw-flicks, hot plate [9, 12]: preserving reflexive paw-flicks
- affective/emotional defensive behavior (paw-lick), hot plate ([9]; ketamine 25 and 50 mg/kg): abolished affective/emotional
- motivational defensive behavior (jump-to-escape), hot plate ([9]; ketamine 25 and 50 mg/kg): abolished
- reflexive responses (paw-flick), hot plate ([9]; ketamine dose series up to 50 mg/kg): did not reduce reflexive responses
- affective behavior ([9]; ketamine, GRIN1 knockouts): without recovery of affective behavior
- dissociation-like behavioral effects ([9]; ketamine, HCN1 channels removed from retrosplenial cortex): selectively abolished both the ketamine-induced rhythm and dissociation-like behavioral effects; also recorded: did not fully elicit the dissociation-like behavioral effects
- magnitude of RSP rhythm on repeated days ([10]; five consecutive days): exhibited similar magnitude across five consecutive days
- 1-3 Hz oscillation localized to retrosplenial cortex (RSP), widefield imaging ([10]; i.p. injection, ketamine 50 mg/kg): a 1-3 Hz oscillation emerged in retrosplenial cortex (RSP), but not in any other cortical region
- correlations of brain regions with RSP ([11]; 8-12 min after 50 mg/kg ketamine i.p.): correlations with RSP were reduced
- correlation of laterodorsal and anteroventral thalamus with each other and RSP ([11]; subanesthetic ketamine): became more-strongly correlated to each other and RSP
- rhythmicity of specific subcortical regions ([11]; subanesthetic ketamine): exhibiting increased rhythmicity
